From US20110294855A1, “Active Compound Combinations” (BAYER CROPSCIENCE AG, priority 2009, published 2011)

System: Microdochium nivale
Test: Microdochium nivale test (lawn)/protective
Format: in vivo
Settings: lawn (100% Agrostis stolonifera), preventive application at 2000, 1000, 500 and 100 g/ha, inoculation 24 hours later, scoring after 5, 7, 14 and 21 days
Protocol: Microdochium Nivale Test (Lawn)/Protective
Lawn seed (100% Agrostis stolonifera) was sown in dishes of the dimensions 38 cm×15 cm×9 cm. 7 days after sowing, the lawn was cut prior to preventive guanidinium hydroxide application at application rates of 2000, 1000, 500 and 100 g/ha. The water application rates were 1000 l/ha (converted). 24 hours after the preventive application of the active compound, the lawn was inoculated by placing of wheat grains infected with Microdochium nivale. In each case 3 wheat grains were placed into a single dish. Scoring of the subsequent fungal growth in the lawn dishes was carried out after 5, 7, 14 and 21 days. In the dishes which had been treated with guanidinium hydroxide, an inhibition of the growth of Microdochium nivale of up to 30% (Abbott) was observed.

With `N=C(N)N.O` [guanidinium hydroxide] the “inhibition of the growth of Microdochium nivale (Abbott)” value was “up to 30%”.
